Data as given in patent publication US8889712B2, “IAP antagonists” (Bristol-Myers Squibb Company, priority 2012, dated 2014).
Where two headings read alike, the source gives them in different places.

Legend:
XIAP BIR3 = target: T1, XIAP BIR3 (Homo sapiens, UniProt P98170); test: XIAP-BIR3/SMAC Homogeneous Time Resolved Fluorescence (HTRF) Assay; type: binding
T1 construct: His-BIR3 (241-356, XIAP)
Method in brief: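 Competition HTRF between XIAP-BIR3 and SMAC; reaction 60 min at room temperature, then anti-6×His-terbium Fab detection for a further 30 min.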

XIAP BIR2-3 = target: T2, XIAP BIR2-3 (Homo sapiens, UniProt P98170, C202A/C213G); test: XIAP-BIR2-3 dimeric SMAC Peptide Homogeneous Time Resolved Fluorescence (HTRF) Assay; type: binding
T2 construct: His-BIR2-3 (125-356, C202A/C213G, XIAP)
T2 sequence (P98170 125-356 C202A/C213G): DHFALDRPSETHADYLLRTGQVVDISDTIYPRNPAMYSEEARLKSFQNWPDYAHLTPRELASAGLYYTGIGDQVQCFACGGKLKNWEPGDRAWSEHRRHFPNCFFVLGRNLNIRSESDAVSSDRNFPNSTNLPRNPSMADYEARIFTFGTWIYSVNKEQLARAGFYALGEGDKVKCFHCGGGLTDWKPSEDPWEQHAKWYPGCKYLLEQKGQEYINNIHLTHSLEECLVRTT
Procedure: B. […] Assays were performed in black, flat-bottom, 384-well plates. […] Compounds were dissolved at 3 mM in dimethylsulfoxide (DMSO) and evaluated at eleven serially diluted concentrations. IC50 and Ki values were derived by non-linear regression analysis.

[1] = 1 nM N-His-BIR3 (241-356, XIAP), 5 nM fluorescein labeled SMAC peptide, HTRF signal, read-out: XIAP BIR3 IC50
[2] = 0.5 nM N-His-BIR2-3 (125-356, C202A/C213G, XIAP), 20 nM fluorescein labeled dimeric SMAC peptide, HTRF signal, read-out: XIAP BIR2-3 IC50

T1 sequence (P98170 241-356): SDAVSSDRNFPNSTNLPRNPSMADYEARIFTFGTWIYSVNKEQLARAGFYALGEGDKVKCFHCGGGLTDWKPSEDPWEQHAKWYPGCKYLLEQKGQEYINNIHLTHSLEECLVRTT

IC50 (XIAP BIR3; [1]) [nM] | IC50 (XIAP BIR2-3; [2]) [nM] | SMILES | IC50 (XIAP BIR3) [nM] | IC50 (XIAP BIR2-3) [nM]
5.1 | 2.2 | CN[C@@H](C)C(=O)N[C@H](C(=O)N1C[C@@H](c2ccc3c(c2)CN(C(=O)[C@@H](NC(=O)[C@H](C)NC)C(C)(C)SCCO)[C@H](C(=O)N[C@@H]2CCCc4ccccc42)C3)C[C@H]1C(=O)N[C@@H]1CCCc2ccccc21)C(C)(C)C [Example 28, (S)-7-((3R,5S)-1-((S)-3,3-Dimethyl-2-((S)-2-(methylamino)propanamido)butanoyl)-5-(((R)-1,2,3,4-tetrahydronaphthalen-1-yl)carbamoyl)pyrrolidin-3-yl)-2-((R)-3-((2-hydroxyethyl)thio)-3-methyl-2-((S)-2-(methylamino)propanamido)butanoyl)-N—((R)-1,2,3,4-tetrahydronaphthalen-1-yl)-1,2,3,4-tetrahydroisoquinoline-3-carboxamide] | – | –
1.8 | 1.7 | CN[C@@H](C)C(=O)N[C@H](C(=O)N1C[C@@H](c2ccc3c(c2)CN(C(=O)[C@@H](NC(=O)[C@H](C)NC)C(C)(C)C)[C@H](C(=O)N[C@@H]2CCOc4ccccc42)C3)C[C@H]1C(=O)N[C@@H]1CCCc2ccccc21)C(C)(C)C [Example 33, (S)—N—((R)—Chroman-4-yl)-2-((S)-3,3-dimethyl-2-((S)-2-(methylamino)propanamido)butanoyl)-7-((3R,5S)-1-((S)-3,3-dimethyl-2-((S)-2-(methylamino)propanamido)butanoyl)-5-(((R)-1,2,3,4-tetrahydronaphthalen-1-yl)carbamoyl)pyrrolidin-3-yl)-1,2,3,4-tetrahydroisoquinoline-3-carboxamide] | – | –
4.8 | 7 | CN[C@@H](C)C(=O)N[C@H](C(=O)N1Cc2cc([C@H]3C[C@@H](C(=O)N[C@@H]4CCCc5ccccc54)N(C(=O)[C@@H](NC(=O)[C@H](C)NC)C(C)(C)C)C3)ccc2C[C@H]1C(=O)N[C@H](CO)Cc1ccccc1)C(C)(C)C [Example 34, (S)-2-((S)-3,3-Dimethyl-2-((S)-2-(methylamino)propanamido)butanoyl)-7-((3R,5S)-1-((S)-3,3-dimethyl-2-((S)-2-(methylamino)propanamido)butanoyl)-5-(((R)-1,2,3,4-tetrahydronaphthalen-1-yl)carbamoyl)pyrrolidin-3-yl)-N-((S)-1-hydroxy-3-phenylpropan-2-yl)-1,2,3,4-tetrahydroisoquinoline-3-carboxamide] | – | –
2.5 | 1.3 | CN[C@@H](C)C(=O)N[C@H](C(=O)N1Cc2cc([C@H]3C[C@@H](C(=O)N[C@@H]4CCCc5ccccc54)N(C(=O)[C@@H](NC(=O)[C@H](C)NC)C(C)(C)C)C3)ccc2C[C@H]1C(=O)N[C@H](CO)c1ccccc1F)C(C)(C)C [Example 35, (S)-2-((S)-3,3-Dimethyl-2-((S)-2-(methylamino)propanamido)butanoyl)-7-((3R,5S)-1-((S)-3,3-dimethyl-2-((S)-2-(methylamino)propanamido)butanoyl)-5-(((R)-1,2,3,4-tetrahydronaphthalen-1-yl)carbamoyl)pyrrolidin-3-yl)-N-((S)-1-(2-fluorophenyl)-2-hydroxyethyl)-1,2,3,4-tetrahydroisoquinoline-3-carboxamide] | – | –

Second part, the compound before the results:

SMILES | IC50 (XIAP BIR3; [1]) [nM] | IC50 (XIAP BIR2-3; [2]) [nM] | IC50 (XIAP BIR3) [nM] | IC50 (XIAP BIR2-3) [nM]
CN[C@@H](C)C(=O)N[C@H](C(=O)N1Cc2cc([C@H]3C[C@@H](C(=O)N[C@@H]4CCCc5ccccc54)N(C(=O)[C@@H](NC(=O)[C@H](C)NC)C(C)(C)C)C3)ccc2C[C@H]1C(=O)N[C@@H]1CCCc2ccccc21)C1CCOCC1 [Example 24, (S)-7-((3R,5S)-1-((S)-3,3-Dimethyl-2-((S)-2-(methylamino)propanamido)butanoyl)-5-(((R)-1,2,3,4-tetrahydronaphthalen-1-yl)carbamoyl)pyrrolidin-3-yl)-2-((S)-2-((S)-2-(methylamino)propanamido)-2-(tetrahydro-2H-pyran-4-yl)acetyl)-N—((R)-1,2,3,4-tetrahydronaphthalen-1-yl)-1,2,3,4-tetrahydroisoquinoline-3-carboxamide] | 3 | 1 | – | –
CN[C@@H](C)C(=O)N[C@H](C(=O)N1Cc2ccc(C(=O)N[C@H]3C[C@@H](C(=O)N[C@@H]4CCCc5ccccc54)N(C(=O)[C@@H](NC(=O)[C@H](C)NC)C(C)(C)C)C3)cc2C[C@H]1C(=O)N[C@@H]1CCCc2ccccc21)C(C)(C)C [Example 25, (S)-2-((S)-3,3-Dimethyl-2-((S)-2-(methylamino)propanamido)butanoyl)-N6-((3S,5S)-1-((S)-3,3-dimethyl-2-((S)-2-(methylamino)propanamido)butanoyl)-5-(((R)-1,2,3,4-tetrahydronaphthalen-1-yl)carbamoyl)pyrrolidin-3-yl)-N^3—((R)-1,2,3,4-tetrahydronaphthalen-1-yl)-1,2,3,4-tetrahydroisoquinoline-3,6-dicarboxamide] | 4 | 3 | – | –
CN[C@@H](C)C(=O)N[C@H](C(=O)N1Cc2ccc(C(=O)N[C@H]3C[C@@H](C(=O)N[C@@H]4CCCc5ccccc54)N(C(=O)[C@@H](NC(=O)[C@H](C)NC)C(C)(C)C)C3)cc2C[C@@H]1C(=O)N[C@@H]1CCCc2ccccc21)C(C)(C)C [Example 26, (R)-2-((S)-3,3-Dimethyl-2-((S)-2-(methylamino)propanamido)butanoyl)-N6-((3S,5S)-1-((S)-3,3-dimethyl-2-((S)-2-(methylamino)propanamido)butanoyl)-5-(((R)-1,2,3,4-tetrahydronaphthalen-1-yl)carbamoyl)pyrrolidin-3-yl)-N^3—((R)-1,2,3,4-tetrahydronaphthalen-1-yl)-1,2,3,4-tetrahydroisoquinoline-3,6-dicarboxamide] | 11 | 196 | – | –
CN[C@@H](C)C(=O)N[C@H](C(=O)N1Cc2cc(NC(=O)[C@H]3C[C@@H](C(=O)N[C@@H]4CCCc5ccccc54)N(C(=O)[C@@H](NC(=O)[C@H](C)NC)C(C)(C)C)C3)ccc2C[C@H]1C(=O)N[C@@H]1CCCc2ccccc21)C(C)(C)C [Example 27, (2S,4S)-1-((S)-3,3-Dimethyl-2-((S)-2-(methylamino)propanamido)butanoyl)-N^4—((S)-2-((S)-3,3-dimethyl-2-((S)-2-(methylamino)propanamido)butanoyl)-3-(((R)-1,2,3,4-tetrahydronaphthalen-1-yl)carbamoyl)-1,2,3,4-tetrahydroisoquinolin-7-yl)-N^2—((R)-1,2,3,4-tetrahydronaphthalen-1-yl)pyrrolidine-2,4-dicarboxamide] | – | – | 5 | 1
CN[C@@H](C)C(=O)N[C@H](C(=O)N1C[C@@H](c2ccc3c(c2)CN(C(=O)[C@@H](NC(=O)[C@H](C)NC)C(C)(C)SCC(=O)NCCO)[C@H](C(=O)N[C@@H]2CCCc4ccccc42)C3)C[C@H]1C(=O)N[C@@H]1CCCc2ccccc21)C(C)(C)C [Example 29, (S)-7-((3R,5S)-1-((S)-3,3-Dimethyl-2-((S)-2-(methylamino)propanamido)butanoyl)-5-(((R)-1,2,3,4-tetrahydronaphthalen-1-yl)carbamoyl)pyrrolidin-3-yl)-2-((R)-3-((2-((2-hydroxyethyl)amino)-2-oxoethyl)thio)-3-methyl-2-((S)-2-(methylamino)propanamido)butanoyl)-N—((R)-1,2,3,4-tetrahydronaphthalen-1-yl)-1,2,3,4-tetrahydroisoquinoline-3-carboxamide] | 11.7 | 0.8 | – | –
CN[C@@H](C)C(=O)N[C@H](C(=O)N1C[C@@H](c2ccc3c(c2)CN(C(=O)[C@@H](NC(=O)[C@H](C)NC)C(C)(C)SCC(=O)N(C)C)[C@H](C(=O)N[C@@H]2CCCc4ccccc42)C3)C[C@H]1C(=O)N[C@@H]1CCCc2ccccc21)C(C)(C)C [Example 30, (S)-7-((3R,5S)-1-((S)-3,3-Dimethyl-2-((S)-2-(methylamino)propanamido)butanoyl)-5-(((R)-1,2,3,4-tetrahydronaphthalen-1-yl)carbamoyl)pyrrolidin-3-yl)-2-((R)-3-((2-(dimethylamino)-2-oxoethyl)thio)-3-methyl-2-((S)-2-(methylamino)propanamido)butanoyl)-N-((R)-1,2,3,4-tetrahydronaphthalen-1-yl)-1,2,3,4-tetrahydroisoquinoline-3-carboxamide] | 3.9 | 5.7 | – | –
CN[C@@H](C)C(=O)N[C@H](C(=O)N1C[C@@H](c2ccc3c(c2)CN(C(=O)[C@@H](NC(=O)[C@H](C)NC)C(C)(C)SCC(=O)NC(CO)CO)[C@H](C(=O)N[C@@H]2CCCc4ccccc42)C3)C[C@H]1C(=O)N[C@@H]1CCCc2ccccc21)C(C)(C)C [Example 31, (S)-2-((R)-3-((2-((1,3-Dihydroxypropan-2-yl)amino)-2-oxoethyl)thio)-3-methyl-2-((S)-2-(methylamino)propanamido)butanoyl)-7-((3R,5S)-1-((S)-3,3-dimethyl-2-((S)-2-(methylamino)propanamido)butanoyl)-5-(((R)-1,2,3,4-tetrahydronaphthalen-1-yl)carbamoyl)pyrrolidin-3-yl)-N-((R)-1,2,3,4-tetrahydronaphthalen-1-yl)-1,2,3,4-tetrahydroisoquinoline-3-carboxamide] | 13.8 | 1.2 | – | –
CN[C@@H](C)C(=O)N[C@H](C(=O)N1CC(c2ccc3c(c2)CN(C(=O)[C@@H](NC(=O)[C@H](C)NC)C(C)(C)SCC(=O)O)[C@H](C(=O)NC2CCCc4ccccc42)C3)C[C@H]1C(=O)NC1CCCc2ccccc21)C(C)(C)C (stereo partly drawn) [Example 32, 2-(((R)-4-((S)-7-((3R,5S)-1-((S)-3,3-Dimethyl-2-((S)-2-(methylamino)propanamido)butanoyl)-5-(((R)-1,2,3,4-tetrahydronaphthalen-1-yl)carbamoyl)pyrrolidin-3-yl)-3-(((R)-1,2,3,4-tetrahydronaphthalen-1-yl)carbamoyl)-3,4-dihydroisoquinolin-2(1H)-yl)-2-methyl-3-((S)-2-(methylamino)propanamido)-4-oxobutan-2-yl)thio)acetic acid, 2TFA] | 8.7 | 1.9 | – | –
